Reference: publication PMC3472544, “Glycosaminoglycan analogs as a novel anti-inflammatory strategy” (Frontiers in Immunology, 2012)

How the values were obtained:
[1] = molecular target: T1, CCL5 (Homo sapiens, UniProt P13501); test: NMR-based CCL5 binding, Kd from 15N-HSQC titration; conditions: for Kd: determined by protein NMR, pH 3.2, 30°C; for selective binding to CCL5 in the NMR screen: 206 compound library, 200 μM, HSQC chemical shift changes
T1 construct: made in house
T1 sequence (P13501 24-91): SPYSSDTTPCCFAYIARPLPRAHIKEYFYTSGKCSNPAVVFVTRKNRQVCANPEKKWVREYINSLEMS
Protocol: These molecules were charged, and contained multiple acid groups, such as carboxylates and sulfonates. In addition, many of the molecules were aromatic, to provide some hydrophobicity. The library was pooled into sets containing five compounds and these pools mixed at 200 μM, with an equal concentration of CCL5 at 30°C, and a heteronuclear single quantum coherence (HSQC) spectrum recorded immediately. For pools that induced significant change in the protein chemical shifts, a second round of screening was performed in which each of the five compounds was added individually to the protein solution. […] Dissociation constants were obtained by fitting the recorded chemical shift as a function of increasing ligand concentrations with: (1) δobs=δf+LbΔb −f in which δobs is the observed chemical shift at each point of the titration curve, δf is the chemical shift of the free protein and Δb − f is the difference in chemical shift between free and fully complexed protein.

[2] = test system: citrated plasma from healthy human blood donors; test: Anti-coagulation assay: Activated Partial Thromboplastin Time (APTT); conditions: calibrated against heparin standard curve, samples at 1 mg/ml (MHxS 0.1 mg/ml)
Protocol: Activated Partial Thromboplastin Time (APTT) assays were performed by GlycoMar. 10 mg/ml stock solutions of NisS, StachS, and MHxS, were prepared using dH2O and stored at −20°C until use. Samples were tested at 1 mg/ml. All further dilutions were in dH2O. Prior to each assay, a calibration curve of heparin ranging from 0 to 10 IU/ml was prepared using 5th International Standard Heparin. (GlycoMar ID:92, batch 97/578, Expiry 21SEP10). Fresh human blood from healthy human blood donors was collected into S-Monovette Coagulation tubes from Sarstedt. Nine parts of freshly drawn venous blood were collected into one part trisodium citrate (0.106 M). Plasma was obtained by centrifugation at 1500 × g for 10 min. Each of the carbohydrate samples was diluted and tested at 1 mg/ml in the first instance. MHxS was subsequently tested at 0.1 mg/ml to be within the time frame of the standard curve. The APTT assay was run on an ACL 9000 Coagulation Analyzer. The coagulation time of HemosIL Normal Control (cat no. 0020003110) was checked. Samples, standards and controls were mixed 1:10 with citrated plasma in a test tube, loaded into the ACL 9000 carousel and analyzed using the extended APTT run program.

[3] = test system: leukocyte recruitment into the synovial (knee) cavity; test: Antigen-induced arthritis (AIA) model, mBSA; type: in vivo, mice; conditions: 50 μg s.c. immediately after mBSA; cells counted at 24 h
Protocol: Induction of disease was performed by injection of 10 μg methylated bovine serum albumin (mBSA) as a 10 μL injection into the synovial cavity. Test compounds, at a total dose of 50 μg were injected in a total volume of 200 μL subcutaneously immediately after mBSA administration. Group sizes were 4–6 animals. Total leukocytes (A), neutrophils (B), and mononuclear cells (C) in the synovial cavity were enumerated 24 h after mBSA injection (Sachs et al., [2011]).
Figure 6 Inhibition of antigen induced arthritis. An injection of mBSA into the synovial cavity was used to induce disease. 50 μg of the inhibitors were administered s.c. immediately after the mBSA injection, and the cells in the synovial cavity were enumerated 24 h later. (A) Total cells; (B) […]; (C) mononuclear cells. ^*P < 0.05.

[4] = molecular target: T2, CCL5 binding to heparin (Homo sapiens, UniProt P13501); test: Immobilized heparin competition binding assay ([125I]-CCL5 on heparin-Sepharose beads); conditions: [125I]-CCL5 0.05 nM, 4 h, read-out: IC50 for the inhibition of CCL5 binding to heparin
T2 sequence (P13501 24-91): T1 sequence (P13501 24-91)
Protocol: Competition experiments were performed as described elsewhere (Severin et al., [2010]). Briefly, heparin-Sepharose beads (Sepharose beads or binding buffer as a background control) and increasing amounts of antagonist were added to each well of a 96 well filter plate. [^125I]-CCL5, was added last, to reach a final concentration of 0.05 nM. The plates were incubated on a shaker at room temperature for 4 h. Each experiment was performed in triplicate, and the results are given as the mean of the three assays.

[5] = test system: paw thickness after SRBC challenge; test: Delayed-type hypersensitivity (DTH) model, SRBC; type: in vivo, BALB/c mice; conditions: for inhibition of paw swelling: oligosaccharides 10 mg/kg s.c. at −30 min and +8 h, dexamethasone by oral gavage 30 min before challenge, paw thickness at 21 h
Protocol: Female BALB/c mice were immunized with 2 × 10^6 sheep red blood cells (SRBC) by subcutaneous route (s.c.) at the base of the tail. Five days later mice were challenged with an s.c. injection of 2 × 10^6 SRBC into the softpaw of the left hindpaw. The paw thickness was measured 21 h later and the difference calculated based on values obtained before challenge. MHxS, NisS, and StachS were injected s.c. at a dose of 10 mg/kg, 30 min before and 8 h after challenge. Vehicle was 0.02% BSA diluted in PBS. The reference compound, dexamethasone, was diluted in saline and administered by oral gavage 30 min before challenge. Group sizes were 6 for sham and 8 for all other groups.
Figure 5 Inhibition of delayed-type hypersensitivity. Immunization was performed by s.c. administration of SRBC, followed by a challenge in the hindpaw 5 days later. The persulfated oligosaccharides (10 mg/kg) were administered 30 min prior and 8 h after the challenge. Dexamethasone was used as a positive control, and paw thickness was measured 21 h following the challenge. The statistical differences vs. the control group (mice challenged with SRBC and treated with vehicle for the compounds 0.02% BSA diluted in PBS) are shown whenever present and indicated by ^*P <0.05>; ^***P < 0.001. TEXT PRINTED IN THE PICTURE: dexamethasone: 47% *** | MHxS: 39% *** | NisS: 20% * | StachS: 41% ***

Compound | Kd [1] [µM] | other results
O=S(=O)(O)c1ccccc1O [Molecule 13] | 50 | 
O=C(O)c1cc(NS(=O)(=O)c2ccc([N+](=O)[O-])cc2)cc(S(=O)(=O)O)c1O [Molecule 9] | 300 | 
persulfated Nis [NisS] |  | Anticoagulant activity (heparin-equivalent) [2]: 6.87 ± 3.22 IU/mg; mononuclear cell recruitment into the knee cavity [3]: statistically significant reduction; neutrophil recruitment into the knee cavity [3]: statistically significant reduction; IC50 [4]: 5.89 ± 0.04 µM; inhibition of paw swelling [5]: 20%
CC(=O)Nc1ccc(S(=O)(=O)Nc2cc(C(=O)O)c(O)c(S(=O)(=O)O)c2)cc1 [Molecule 16] | 40 | 
O=S(=O)(O)c1cc(O)ccc1O [Molecule 5] | > 500 | 
C[C@@H]1C[C@H]2[C@@H]3CCC4=CC(=O)C=C[C@]4(C)[C@@]3(F)[C@@H](O)C[C@]2(C)[C@@]1(O)C(=O)CO [dexamethasone, reference compound] |  | inhibition of paw swelling [5]: 47%
O=C(O)c1ccccc1O [Molecule 4] | 350 | 
Nc1ccc(O)c(S(=O)(=O)O)c1 [Molecule 6] | 500 | 
persulfated Stach [StachS] |  | Anticoagulant activity (heparin-equivalent) [2]: 6.90 ± 2.69 IU/mg; IC50 [4]: 18.6 ± 4.34 µM; reduction of paw thickness compared with dexamethasone ([5]; 10 mg/kg s.c. at −30 min and +8 h): comparable effect; inhibition of paw swelling [5]: 41%

Second part, led by results:

Kd [1] [µM] | Compound | other results
35 | Nc1cc(C(=O)O)c(O)c(S(=O)(=O)O)c1 [Molecule 7] | 
1 to 5 | O=C(O)c1c(O)c(S(=O)(=O)O)cc(S(=O)(=O)O)c1O [Molecule 12] | 
< 10 | O=C(O)c1cc(S(=O)(=O)O)c(O)cc1O [Molecule 11] | 
20 | CC(=O)Nc1cc(C(=O)O)c(O)c(S(=O)(=O)O)c1 [Molecule 8] | selective binding to CCL5 in the NMR screen [1]: confirmed to be selectively binding to CCL5
18 | O=C(O)c1c(O)ccc(S(=O)(=O)O)c1O [Molecule 10] | selective binding to CCL5 in the NMR screen [1]: confirmed to be selectively binding to CCL5
< 1 | O=C(O)c1cc(S(=O)(=O)Nc2cc(C(=O)O)c(O)c(S(=O)(=O)O)c2)ccc1O [Molecule 14] | 
